Experimental data as given in patent US10131652B2, “Pyrimidinyloxy benzene derivatives as herbicides” (E. I. DU PONT DE NEMOURS AND COMPANY, priority 2014, dated 2018).
Where two headings read alike, the source gives them in different places.

How the values were obtained:
Test in all cases: Test E pre-/postemergence plant response
Assay type in all cases: in vivo
[1] = test system: wild radish (Raphanus raphanistrum); conditions: scale 0 to 100, read-out: Plant response rating, Radish, Wild; for pest or weed control at 16 g/ha: 16 g ai/ha; for pest or weed control at 31 g/ha: 31 g ai/ha; for pest or weed control at 62 g/ha: 62 g ai/ha; for pest or weed control at 125 g/ha: 125 g ai/ha
Outline: (§1)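 Pre-emergence: seeds sown in silt loam soil and sprayed with test chemicals in a non-phytotoxic solvent/surfactant mix. Post-emergence: plants at 2–18 cm (1- to 4-leaf stage) in peat/vermiculite medium treated with the same formulation. Visual rating versus controls after 7–21 days, 0 (no effect) to 100 (complete control).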

[2] = test system: winter wheat (Triticum aestivum); conditions: scale 0 to 100, read-out: Plant response rating, Wheat, Winter; for plant injury at 16 g/ha: 16 g ai/ha; for plant injury at 62 g/ha: 62 g ai/ha; for plant injury at 125 g/ha: 125 g ai/ha
Outline: as §1

[3] = test system: wild mustard (Sinapis arvensis); conditions: Brassica, scale 0 to 100, read-out: Plant response rating, Mustard, Wild; for pest or weed control at 16 g/ha: 16 g ai/ha; for pest or weed control at 31 g/ha: 31 g ai/ha; for pest or weed control at 62 g/ha: 62 g ai/ha; for pest or weed control at 125 g/ha: 125 g ai/ha
Outline: as §1

[4] = test system: Italian ryegrass (Lolium multiflorum); conditions: scale 0 to 100, read-out: Plant response rating, Ryegrass, Italian; for pest or weed control at 16 g/ha: 16 g ai/ha; for pest or weed control at 31 g/ha: 31 g ai/ha; for pest or weed control at 62 g/ha: 62 g ai/ha; for pest or weed control at 125 g/ha: 125 g ai/ha
Outline: as §1

[5] = test system: blackgrass (Alopecurus myosuroides); conditions: scale 0 to 100, read-out: Plant response rating, Blackgrass; for pest or weed control at 16 g/ha: 16 g ai/ha; for pest or weed control at 31 g/ha: 31 g ai/ha; for pest or weed control at 62 g/ha: 62 g ai/ha; for pest or weed control at 125 g/ha: 125 g ai/ha
Outline: as §1

[6] = test system: bluegrass (annual bluegrass, Poa annua); conditions: scale 0 to 100, read-out: Plant response rating, Bluegrass; for pest or weed control at 16 g/ha: 16 g ai/ha; for pest or weed control at 31 g/ha: 31 g ai/ha; for pest or weed control at 62 g/ha: 62 g ai/ha; for pest or weed control at 125 g/ha: 125 g ai/ha
Outline: as §1

[7] = test system: pigweed (Amaranthus retroflexus); conditions: scale 0 to 100, read-out: Plant response rating, Pigweed; for pest or weed control at 16 g/ha: 16 g ai/ha; for pest or weed control at 31 g/ha: 31 g ai/ha; for pest or weed control at 62 g/ha: 62 g ai/ha; for pest or weed control at 125 g/ha: 125 g ai/ha
Outline: as §1

[8] = test system: lambsquarters (Chenopodium album); conditions: scale 0 to 100, read-out: Plant response rating, Lambsquarters; for pest or weed control at 16 g/ha: 16 g ai/ha; for pest or weed control at 31 g/ha: 31 g ai/ha; for pest or weed control at 62 g/ha: 62 g ai/ha; for pest or weed control at 125 g/ha: 125 g ai/ha
Outline: as §1

kochia (Kochia scoparia) = conditions: Bassia scoparia, scale 0 to 100, read-out: Plant response rating, Kochia; for pest or weed control at 16 g/ha: 16 g ai/ha; for pest or weed control at 31 g/ha: 31 g ai/ha; for pest or weed control at 62 g/ha: 62 g ai/ha; for pest or weed control at 125 g/ha: 125 g ai/ha
Outline: as §1

[9] = test system: spring barley (Hordeum vulgare); conditions: for plant injury at 16 g/ha: 16 g ai/ha; for plant injury at 31 g/ha: 31 g ai/ha; for plant injury at 62 g/ha: 62 g ai/ha; for plant injury at 125 g/ha: 125 g ai/ha
Outline: as §1

[10] = test system: speedwell (bird's-eye speedwell, Veronica persica); conditions: scale 0 to 100, read-out: Plant response rating, Speedwell; for pest or weed control at 16 g/ha: 16 g ai/ha; for pest or weed control at 62 g/ha: 62 g ai/ha; for pest or weed control at 125 g/ha: 125 g ai/ha
Outline: as §1

[11] = post-emergence, 31 g ai/ha, Postemergence
[12] = post-emergence, Postemergence, scale 0 to 100, read-out: Plant response rating, Barley, Spring
[13] = pre-emergence, Preemergence, scale 0 to 100, read-out: Plant response rating, Barley, Spring

Fc1cccc(Oc2ncc(Cl)cn2)c1-c1cc(C(F)F)on1 [Compound 55, 5-chloro-2-[2-[5-(difluoromethyl)-3-isoxazolyl]-3-fluorophenoxy]pyrimidine]
pest or weed control at 16 g/ha ([1]; post-emergence, Postemergence): 75%
pest or weed control at 31 g/ha ([1]; post-emergence, Postemergence): 70%
pest or weed control at 62 g/ha ([1]; post-emergence, Postemergence): 80%
pest or weed control at 125 g/ha ([1]; post-emergence, Postemergence): 80%
pest or weed control at 16 g/ha ([1]; pre-emergence, Preemergence): 70%
pest or weed control at 31 g/ha ([1]; pre-emergence, Preemergence): 100%
pest or weed control at 62 g/ha ([1]; pre-emergence, Preemergence): 100%
pest or weed control at 125 g/ha ([1]; pre-emergence, Preemergence): 100%
plant injury at 16 g/ha ([2]; post-emergence, Postemergence): 0%
plant injury at 31 g/ha [2, 11]: 15%
plant injury at 62 g/ha ([2]; post-emergence, Postemergence): 30%
plant injury at 125 g/ha ([2]; post-emergence, Postemergence): 40%
plant injury at 16 g/ha ([2]; pre-emergence, Preemergence): 5%
plant injury at 62 g/ha ([2]; pre-emergence, Preemergence): 10%
plant injury at 125 g/ha ([2]; pre-emergence, Preemergence): 20%
pest or weed control at 16 g/ha ([3]; post-emergence, Postemergence): 70%
pest or weed control at 31 g/ha ([3]; post-emergence, Postemergence): 85%
pest or weed control at 62 g/ha ([3]; post-emergence, Postemergence): 95%
pest or weed control at 125 g/ha ([3]; post-emergence, Postemergence): 95%
pest or weed control at 16 g/ha ([3]; pre-emergence, Preemergence): 80%
pest or weed control at 31 g/ha ([3]; pre-emergence, Preemergence): 100%
pest or weed control at 62 g/ha ([3]; pre-emergence, Preemergence): 100%
pest or weed control at 125 g/ha ([3]; pre-emergence, Preemergence): 100%
pest or weed control at 16 g/ha ([4]; post-emergence, Postemergence): 20%
pest or weed control at 31 g/ha ([4]; post-emergence, Postemergence): 20%
pest or weed control at 62 g/ha ([4]; post-emergence, Postemergence): 15%
pest or weed control at 125 g/ha ([4]; post-emergence, Postemergence): 20%
pest or weed control at 16 g/ha ([4]; pre-emergence, Preemergence): 0%
pest or weed control at 31 g/ha ([4]; pre-emergence, Preemergence): 0%
pest or weed control at 62 g/ha ([4]; pre-emergence, Preemergence): 50%
pest or weed control at 125 g/ha ([4]; pre-emergence, Preemergence): 50%
pest or weed control at 16 g/ha ([5]; post-emergence, Postemergence): 5%
pest or weed control at 31 g/ha ([5]; post-emergence, Postemergence): 10%
pest or weed control at 62 g/ha ([5]; post-emergence, Postemergence): 20%
pest or weed control at 125 g/ha ([5]; post-emergence, Postemergence): 40%
pest or weed control at 16 g/ha ([5]; pre-emergence, Preemergence): 0%
pest or weed control at 31 g/ha ([5]; pre-emergence, Preemergence): 15%
pest or weed control at 62 g/ha ([5]; pre-emergence, Preemergence): 60%
pest or weed control at 125 g/ha ([5]; pre-emergence, Preemergence): 100%
pest or weed control at 16 g/ha ([6]; post-emergence, Postemergence): 0%
pest or weed control at 31 g/ha ([6]; post-emergence, Postemergence): 0%
pest or weed control at 62 g/ha ([6]; post-emergence, Postemergence): 15%
pest or weed control at 125 g/ha ([6]; post-emergence, Postemergence): 25%
pest or weed control at 16 g/ha ([6]; pre-emergence, Preemergence): 0%
pest or weed control at 31 g/ha ([6]; pre-emergence, Preemergence): 10%
pest or weed control at 62 g/ha ([6]; pre-emergence, Preemergence): 10%
pest or weed control at 125 g/ha ([6]; pre-emergence, Preemergence): 100%
pest or weed control at 16 g/ha ([7]; post-emergence, Postemergence): 85%
pest or weed control at 31 g/ha ([7]; post-emergence, Postemergence): 90%
pest or weed control at 62 g/ha ([7]; post-emergence, Postemergence): 95%
pest or weed control at 125 g/ha ([7]; post-emergence, Postemergence): 95%
pest or weed control at 16 g/ha ([7]; pre-emergence, Preemergence): 75%
pest or weed control at 31 g/ha ([7]; pre-emergence, Preemergence): 100%
pest or weed control at 62 g/ha ([7]; pre-emergence, Preemergence): 100%
pest or weed control at 125 g/ha ([7]; pre-emergence, Preemergence): 100%
pest or weed control at 16 g/ha ([8]; post-emergence, Postemergence): 75%
pest or weed control at 31 g/ha ([8]; post-emergence, Postemergence): 80%
pest or weed control at 62 g/ha ([8]; post-emergence, Postemergence): 85%
pest or weed control at 125 g/ha ([8]; post-emergence, Postemergence): 90%
pest or weed control at 16 g/ha ([8]; pre-emergence, Preemergence): 95%
pest or weed control at 31 g/ha ([8]; pre-emergence, Preemergence): 100%
pest or weed control at 62 g/ha ([8]; pre-emergence, Preemergence): 100%
pest or weed control at 125 g/ha ([8]; pre-emergence, Preemergence): 100%
pest or weed control at 16 g/ha (kochia (Kochia scoparia); post-emergence, Postemergence): 65%
pest or weed control at 31 g/ha (kochia (Kochia scoparia); post-emergence, Postemergence): 70%
pest or weed control at 62 g/ha (kochia (Kochia scoparia); post-emergence, Postemergence): 85%
pest or weed control at 125 g/ha (kochia (Kochia scoparia); post-emergence, Postemergence): 85%
pest or weed control at 16 g/ha (kochia (Kochia scoparia); pre-emergence, Preemergence): 55%
pest or weed control at 31 g/ha (kochia (Kochia scoparia); pre-emergence, Preemergence): 100%
pest or weed control at 62 g/ha (kochia (Kochia scoparia); pre-emergence, Preemergence): 100%
pest or weed control at 125 g/ha (kochia (Kochia scoparia); pre-emergence, Preemergence): 100%
plant injury at 16 g/ha [9, 12]: 10%
plant injury at 31 g/ha [9, 12]: 10%
plant injury at 62 g/ha [9, 12]: 15%
plant injury at 125 g/ha ([9]; post-emergence, Postemergence, scale 0 to 100 (0 no effect, 100 complete control), read-out: Plant response rating, Barley, Spring): 20%
plant injury at 16 g/ha [9, 13]: 10%
plant injury at 31 g/ha [9, 13]: 10%
plant injury at 62 g/ha [9, 13]: 45%
plant injury at 125 g/ha [9, 13]: 50%
pest or weed control at 16 g/ha ([10]; post-emergence, Postemergence): 75%
pest or weed control at 31 g/ha [10, 11]: 80%
pest or weed control at 62 g/ha ([10]; post-emergence, Postemergence): 100%
pest or weed control at 125 g/ha ([10]; post-emergence, Postemergence): 100%
pest or weed control at 16 g/ha ([10]; pre-emergence, Preemergence): 100%
pest or weed control at 62 g/ha ([10]; pre-emergence, Preemergence): 100%
pest or weed control at 125 g/ha ([10]; pre-emergence, Preemergence): 100%
